Experimental data published in paper PMC7076352 (Pharmaceutics, 2020).

Experiments:
[1] = molecular target: T1, CYP1A2 (Rattus norvegicus, UniProt P04799); assay: In vitro cocktail CYP450 activity assay in rat liver microsomes, CYP1A2 (phenacetin probe)
T1 sequence (P04799 1-513): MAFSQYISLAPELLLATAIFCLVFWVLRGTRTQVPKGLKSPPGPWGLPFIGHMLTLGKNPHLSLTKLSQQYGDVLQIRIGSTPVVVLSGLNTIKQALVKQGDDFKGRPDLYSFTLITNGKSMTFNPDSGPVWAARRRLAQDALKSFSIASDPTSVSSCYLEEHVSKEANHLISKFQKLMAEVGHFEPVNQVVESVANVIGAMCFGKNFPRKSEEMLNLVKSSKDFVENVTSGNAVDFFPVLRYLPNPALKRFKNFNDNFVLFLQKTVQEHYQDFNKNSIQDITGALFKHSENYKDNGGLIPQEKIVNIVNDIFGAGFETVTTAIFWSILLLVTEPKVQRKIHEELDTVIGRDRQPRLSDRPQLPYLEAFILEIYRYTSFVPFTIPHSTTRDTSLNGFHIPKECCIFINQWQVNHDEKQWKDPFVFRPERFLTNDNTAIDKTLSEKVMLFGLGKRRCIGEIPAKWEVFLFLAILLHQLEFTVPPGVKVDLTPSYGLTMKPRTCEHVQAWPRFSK
Method: (§1) (OHBUP-[D6]) and 5 nM 4′-hydroxydiclofenac-[^13C6] (OHDIC-[^13C6]) as internal standards (ISs). […]
(§2) standard addition experiments. Each group included four concentration levels. For the PK […]
(§3) The probe compounds, viz. […]
(§4) chosen after incubating all the recruited substrates. In order to assure the linear relationship […]
(§5) The incubation system was also optimized in terms of substrate concentrations. The substrates concentrations of […]

[2] = in vivo; set-up: species or system Sprague-Dawley (SD) rats; settings: Sprague-Dawley, plasma, rat
Method: At each time, 0.5 mL of blood was collected in the heparin sodium tubes. Plasma was separated by centrifugation at 4000 rpm for 10 min and stored below −80 °C until bioanalysis. Oasis PRiME HLB SPE cartridges (1 cc/30 mg, Waters, Milford, MA, USA) were used to process the plasma samples (Supplementary Materials).
The generic layout of instrumentation setup of the LVDI-UHPLC-MS/MS was conducted on a Shimadzu UHPLC system consisting of two LC-20ADXR pumps, a DGU-20A3R degasser, and a CBM-20A controller (Kyoto, Japan) with a SCIEX 4500 QTRAP mass spectrometer mounted with an electron spray ionization (ESI) interface as well as an electronic 6-port/2-channel valve (Foster City, CA, USA). Analyst software package (version 1.6.2, SCIEX) was implemented to control and synchronize the entire system, and also for data acquisition and processing. A single analytical run was fragmented into two phases, namely, loading and elution phases, by switching the electronic valve (Figure 2). At the loading phase, the valve was maintained at A-channel. The specimen aliquot of large volume delivered from the auto-sampler was captured onto a guard column. Meanwhile, the pumps were responsible for delivering the mobile phase at a high flow rate, aiming to dilute the sample solvent, thus facilitating the candidate constituents to concentrate on the pre-guard column. Then, the valve was automatically switched to the B-channel to trigger the elution phase. The trapped components were flushed from the pre-guard column into an analytical column, and underwent multiple reaction monitoring (MRM) analysis on the optimized LC gradients. The detailed information of LVDI-UHPLC-MS/MS analysis for pharmacokinetic and cocktail studies is shown in the Supplementary Materials section.

[3] = molecular target: T2, CYP2E1 (Rattus norvegicus, UniProt P05182); settings: IC50 CYP2E1, single components; RLM 0.2 mg/mL, 15 min, triplicate, mean ± SD
Method: (§6) For the cocktail assay, the activity is expressed as the percentage of activity remaining comparing with that of a control sample containing no inhibitor. […] All the data were described as mean ± standard deviation (SD). Normality assumptions were tested by the Kolmogorov–Smirnov statistic setting p = 0.10 as the limit for rejection of the null hypothesis of normality. If the distribution of the data was normal with equal variances, a two-sided test was performed at the 5% level of significance. The Welch’s correction was then applied when the underlying variances were not equal. When the assumption of normality must be rejected, the Mann-Whitney test, a non-parametric equivalent of the independent-measures t-test, was used.

[4] = test system: CYP2C19; assay: In vitro cocktail CYP450 activity assay in rat liver microsomes, CYP2C19 (omeprazole probe)
Method: as §1, §2, §3, §4, §5

[5] = test system: CYP2B6; assay: In vitro cocktail CYP450 activity assay in rat liver microsomes, CYP2B6 (bupropion probe)
Method: as §1, §2, §3, §4, §5

[6] = test system: CYP3A4; assay: in vitro; settings: Sprague-Dawley, rat, pH 7.4
Method: as §1, §2, §3, §4, §5

[7] = test system: CYP2C9; assay: In vitro cocktail CYP450 activity assay in rat liver microsomes, CYP2C9 (tolbutamide probe)
Method: as §1, §2, §3, §4, §5

[8] = test system: CYP2D6; assay: in vitro; settings: Sprague-Dawley, rat
Method: as §1, §2, §3, §4, §5

[9] = molecular target: T2, CYP2E1; settings: at the Cmax level in rat plasma, calculated from the dose–response curve
Method: as §6

[10] = at the Cmax level in rat plasma, calculated from the dose–response curve

T2 sequence (P05182 whole entry): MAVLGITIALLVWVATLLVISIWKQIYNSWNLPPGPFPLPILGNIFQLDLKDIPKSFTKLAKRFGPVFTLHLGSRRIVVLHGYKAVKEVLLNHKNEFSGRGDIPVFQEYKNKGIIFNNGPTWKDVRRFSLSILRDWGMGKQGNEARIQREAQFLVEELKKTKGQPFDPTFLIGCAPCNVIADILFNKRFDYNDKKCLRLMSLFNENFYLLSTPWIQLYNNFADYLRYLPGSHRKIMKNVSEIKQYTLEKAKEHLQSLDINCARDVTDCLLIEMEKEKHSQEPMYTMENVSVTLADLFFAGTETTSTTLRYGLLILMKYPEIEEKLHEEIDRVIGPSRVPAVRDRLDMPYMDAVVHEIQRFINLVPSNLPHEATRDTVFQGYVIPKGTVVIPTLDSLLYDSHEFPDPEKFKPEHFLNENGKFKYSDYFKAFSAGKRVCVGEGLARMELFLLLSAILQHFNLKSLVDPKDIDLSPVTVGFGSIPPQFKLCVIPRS

Compound: CC(C)=CCC[C@](C)(O[C@@H]1O[C@H](CO[C@@H]2O[C@H](CO)[C@@H](O)[C@H](O)[C@H]2O)[C@@H](O)[C@H](O)[C@H]1O)[C@H]1CC[C@]2(C)[C@@H]1[C@H](O)C[C@@H]1[C@@]3(C)CC[C@H](O[C@@H]4O[C@H](CO)[C@@H](O)[C@H](O)[C@H]4O[C@@H]4O[C@H](CO)[C@@H](O)[C@H](O)[C@H]4O)C(C)(C)[C@@H]3CC[C@]12C [GRb1, ginsenoside Rb1]
- IC50 ([1]; IC50 CYP1A2, single components, RLM 0.2 mg/mL, 15 min, triplicate, mean ± SD): 5.84 ± 0.14 µM
- Response (% control) CYP1A2 [1, 10]: 79.30 % control
- concentration at […] ([2]; 0.083 h after oral CNP): 18.7 ± 4.36 ng/mL
- concentration at 0.25 h ([2]; 0.25 h after oral CNP): 22.5 ± 4.27 ng/mL
- concentration at 0.5 h ([2]; 0.5 h after oral CNP): 36.1 ± 7.79 ng/mL
- concentration at 1 h ([2]; 1 h after oral CNP): 45.5 ± 3.29 ng/mL
- concentration at 1.5 h ([2]; 1.5 h after oral CNP): 54.6 ± 10.9 ng/mL
- concentration at 2 h ([2]; 2 h after oral CNP): 60.5 ± 12 ng/mL
- concentration at 3 h ([2]; 3 h after oral CNP): 69.5 ± 9.4 ng/mL
- concentration at 4 h ([2]; 4 h after oral CNP): 83.9 ± 31.8 ng/mL
- concentration at 6 h ([2]; 6 h after oral CNP): 113 ± 74.6 ng/mL
- concentration at 8 h ([2]; 8 h after oral CNP): 80 ± 20.6 ng/mL
- concentration at 12 h ([2]; 12 h after oral CNP): 63.9 ± 28.4 ng/mL
- concentration at 24 h ([2]; 24 h after oral CNP): 22.4 ± 4.86 ng/mL
- concentration at 48 h ([2]; 48 h after oral CNP): 19.4 ± 3.81 ng/mL
- concentration at 72 h ([2]; 72 h after oral CNP): 9.62 ± 1.02 ng/mL
- concentration at 96 h ([2]; 96 h after oral CNP): 6.43 ± 2.45 ng/mL
- AUC(0-inf) ([2]; po, 60 mg/kg): 2810 ± 618 ng·h/mL
- AUC(0-t) ([2]; po, 60 mg/kg): 2320 ± 683 ng·h/mL
- Cmax ([2]; po, 60 mg/kg): 113 ± 41.8 ng/mL
- Tmax ([2]; po, 60 mg/kg): 5.5 ± 1.8 h
- half-life ([2]; po, 60 mg/kg): 36.9 ± 9.65 h
- concentration at 0.25 h ([2]; po, 60 mg·kg^−1): 27.9 ± 4.54 ng/mL
- concentration at 0.5 h ([2]; po, 60 mg·kg^−1): 38.1 ± 3.67 ng/mL
- concentration at 1 h ([2]; po, 60 mg·kg^−1): 53.5 ± 12 ng/mL
- concentration at 1.5 h ([2]; po, 60 mg·kg^−1): 58.4 ± 12.4 ng/mL
- concentration at 2 h ([2]; po, 60 mg·kg^−1): 61.9 ± 19.5 ng/mL
- concentration at 3 h ([2]; po, 60 mg·kg^−1): 78.1 ± 12.8 ng/mL
- concentration at 4 h ([2]; po, 60 mg·kg^−1): 86.9 ± 41 ng/mL
- concentration at 6 h ([2]; po, 60 mg·kg^−1): 107 ± 42.1 ng/mL
- concentration at 8 h ([2]; po, 60 mg·kg^−1): 75.7 ± 26.3 ng/mL
- concentration at 12 h ([2]; po, 60 mg·kg^−1): 53.9 ± 19.1 ng/mL
- concentration at 24 h ([2]; po, 60 mg·kg^−1): 19.2 ± 5.86 ng/mL
- concentration at 48 h ([2]; po, 60 mg·kg^−1): 18.9 ± 8.97 ng/mL
- concentration at 72 h ([2]; po, 60 mg·kg^−1): 9.45 ± 3.37 ng/mL
- concentration at 96 h ([2]; po, 60 mg·kg^−1): 6.79 ± 1.89 ng/mL
- IC50 [3]: 28 ± 2.39 µM
- IC50 at 15 min ([4]; Sprague-Dawley, rat, pooled rat liver microsomes, pH 7.4, probe omeprazole (1.07 µM, in seven-probe cocktail), IC50 CYP2C19, single components, RLM 0.2 mg/mL, 15 min, triplicate, mean ± SD): 16.8 ± 2.52 µM
- Response (% control) CYP2C19 [4, 10]: 98.58 % control
- IC50 at 15 min ([5]; Sprague-Dawley, rat, pooled rat liver microsomes, pH 7.4, probe bupropion (90 µM, in seven-probe cocktail), IC50 CYP2B6, single components, RLM 0.2 mg/mL, 15 min, triplicate, mean ± SD): 121 ± 10.9 µM
- Response (% control) CYP2B6 [5, 10]: 96.46 % control
- Response (% control) CYP3A4 ([6]; 15 min): 99.99 % control
- IC50 at 15 min ([6]; microsomes): 30 ± 2.47 µM
- IC50 at 15 min ([7]; Sprague-Dawley, rat, pooled rat liver microsomes, pH 7.4, probe tolbutamide (18 µM, in seven-probe cocktail), IC50 CYP2C9, single components, RLM 0.2 mg/mL, 15 min, triplicate, mean ± SD): 17.6 ± 2.03 µM
- Response (% control) CYP2C9 [7, 10]: 99.70 % control
- Response (% control) CYP2D6 ([8]; 15 min, pH 7.4): 98.58 % control
- IC50 at 15 min ([8]; microsomes, pH 7.4, IC50 CYP2D6): 17.1 ± 1.29 µM
- Response (% control) CYP2E1 [9]: 99.99 % control
